Source: patent publication US9440938B2, “Sulfonamide derivative having PGD2 receptor antagonistic activity” (SHIONOGI & CO., LTD., priority 2005, dated 2016)
Read-outs that look alike come from different tables or passages of the source.

Columns and labels:
OVA asthma model of rat = test: Test using OVA asthma model of rat (airway hyperresponsiveness, infiltration of inflammatory cells, mucus-secretion); assay type: in vivo, Brown Norway (BN) Rats; settings: po, 72 h
Experimental: Test Using OVA Asthma Model of Rat
Brown Norway (BN) Rats were sensitized by i.p. administration of 0.1 mg/mL of ovalbumin (OVA) and 1 mg of aluminum hydroxide gel. A solution of 1% OVA was aerosolized by ultrasonic nebulizer (NE-U17) and the rats were subjected to inhalation exposure of the aerosol for 30 minutes in an exposing chamber 12, 19, 26 and 33 days after the sensitization. One hour before the 4th exposure of the antigen, compounds of the present invention were administered in a dose of 10 mg/kg p.o. once a day for three days consecutively. In a control group, 0.5% of methyl cellulose was administered in place of the compound of the present invention.
Under pentobarbital anesthesia (80 mg/kg, i.p.), acetylcholine (3.9, 7.8, 15.6, 31.3, 62.5, 125, 250 and 500 μg/kg) was injected to jugular vein of the rats successively from a lower dose at intervals of 5 minutes three days after the fourth exposure to the antigen, and immediate contractile reaction of airways (an increase of insufflation pressure) was measured by a modified method of Konnzett & Ririssler. Inhibition rate of airway hyperresponsiveness against the control group was calculated based on area under the curve (AUC) obtained from concentration-response curve of acetylcholine.
After the measurement of increased hyperresponsive airway was completed, bronchoalveoli of the rats were washed with 5 mL of saline three times. Total cell number in the washings was counted by a hemacytometer under light microscope, and inhibition rates of infiltration of inflammatory cells against the control group were calculated. Further, mucin in the airway lavage fluid was measured by ELISA method using jacalin, a mucin-binding lectin, and the inhibition rates of mucus-secretion against the control group were calculated.

DP receptor [1] = molecular target: T1, DP receptor (Homo sapiens, UniProt Q13258); test: Receptor binding assay, [3H]-PGD2, platelet membrane; settings: [3H]-PGD2, human platelet membrane
T1 construct: endogenous in cells; host or cells: washed platelets from peripheral blood of a healthy volunteer
T1 sequence (Q13258 1-359): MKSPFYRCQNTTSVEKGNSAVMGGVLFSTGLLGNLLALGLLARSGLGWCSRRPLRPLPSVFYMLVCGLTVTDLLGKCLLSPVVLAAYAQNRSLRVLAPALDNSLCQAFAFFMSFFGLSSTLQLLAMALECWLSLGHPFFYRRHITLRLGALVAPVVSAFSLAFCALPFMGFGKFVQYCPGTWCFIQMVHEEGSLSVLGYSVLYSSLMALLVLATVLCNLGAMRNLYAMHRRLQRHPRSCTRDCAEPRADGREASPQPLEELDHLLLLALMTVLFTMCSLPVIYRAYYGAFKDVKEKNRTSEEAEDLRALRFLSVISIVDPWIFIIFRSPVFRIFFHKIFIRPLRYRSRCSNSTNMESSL
Experimental: 2) Receptor Binding Assay
A prepared WP was homogenated and a membrane fraction was collected with high-speed centrifugation. A compound of the present invention or a reference compound A (No. IC-73 in WO 2003/097598) was added to the plate and [^3H]-PGD2 was also added. A platelet membrane, a protein concentration is 2 mg/mL, was added and mixed in the plate, and placed on ice for 2 hours. The reaction solution was transferred to a low protein-adsorptive filter and washed with a wash solution eight times using a cell harvester. After the final washing, water was removed sufficiently, and scintillator was added. DP inhibitory activity was investigated by measuring [^3H] by using Micro Beta.

DP receptor [2] = molecular target: T1, DP receptor; test: cAMP assay with washed platelet (DP inhibitory activity in vitro); assay type: cell-based; settings: washed human platelets, 100 nM PGD2, cAMP by HTRF
Experimental: 1) Preparation of Platelet and a Method of cAMP Assay
30 mL of peripheral blood was collected from a healthy volunteer using a syringe containing one ninth amount of 3.8% sodium citrate. After being centrifuged at 180 g for 10 minutes at room temperature, a supernatant was collected and used as Platelet Rich Plasma (PRP). The resulting PRP was washed with wash buffer and centrifuged three times (Washed Platelet: WP) and platelets were counted by a microcell counter. WP was added to a plate in amount of 1.5×10^8/assay and the plate was treated with 3-isobutyl-1-methylxanthin (IBMX; 0.5 mM) for 5 minutes. A reaction was initiated by adding 100 nM of PGD2 5 min after an addition of a test compound. The reaction was terminated with an addition of 1N hydrochloric acid after 2 minutes and the cells were destructed using 12% triton X-100. An amount of cAMP in the supernatant was assayed by Homogeneous Trangient Fluorescence (HTRF)

[3] = BN rats, 10 mg/kg p.o. once a day for three days, mucin in airway lavage fluid by ELISA against control group, read-out: inhibition rate (%) mucus-secretion
[4] = BN rats, 10 mg/kg p.o. once a day for three days, total cell number in bronchoalveolar washings against control group, read-out: inhibition rate (%) infiltration of inflammatory cells
[5] = read-out: inhibition rate (%) airway hyperresponsiveness
[6] = read-out: IC50 (50% DP-inhibitory concentration in the cAMP assay)

SMILES	inhibition in vivo at 10 mg/kg (OVA asthma model of rat; [3]) [%]	inhibition in vivo at 10 mg/kg (OVA asthma model of rat; [4]) [%]	inhibition in vivo at 10 mg/kg (OVA asthma model of rat; [5]) [%]	Ki (DP receptor [1]) [nM]	IC50 (DP receptor [2]; [6]) [nM]	IC50 (DP receptor [2]) [nM]
CC(C)Oc1ccc(S(=O)(=O)N2CCN(c3ccc([N+](=O)[O-])c(OCC(=O)O)c3)CC2)cc1 [II-13]	47	46	99	810	280	
CC(C)Oc1ccc(S(=O)(=O)N2CCN(c3cc(F)c(F)c(OCC(=O)O)c3)CC2)cc1 [II-16]	76	67	131	870	250	
CC(C)Oc1ccc(S(=O)(=O)N2CCN(c3cc(Br)cc(OCC(=O)O)c3)CC2)cc1 [II-17]	49	53	89	570	230	
CC(C)Oc1ccc(S(=O)(=O)N2CCN(c3cc(OCC(=O)O)cc(C(F)(F)F)c3)CC2)cc1 [II-19]	59	51	54	2000	1100	
CC(C)Oc1ccc(S(=O)(=O)N2CCN(c3ccc(NC(=O)c4ccco4)c(OCC(=O)O)c3)CC2)cc1 [II-24]	89	67	77	1700	510	
CC(C)Oc1ccc(S(=O)(=O)N2CCN(c3cc(Cl)cc(OCC(=O)O)c3)CC2)cc1 [II-26]	121	37	97	630	430	
CC(C)Oc1ccc(S(=O)(=O)N2CCN(c3ccc(Cl)c(OCC(=O)O)c3)CC2)cn1 [II-27]	118	49	49	1400	1000	
CC[C@@H](C)Oc1ccc(S(=O)(=O)N2CCN(c3ccc(Cl)c(OCC(=O)O)c3)CC2)cc1 [II-29]	110	60	89	740	380	
CC(C)Oc1ccc(S(=O)(=O)N2CCN(c3ccc(Br)c(OCC(=O)O)c3)CC2)cc1 [II-33]	76	57	72	1900	300	
CC(C)Sc1ccc(S(=O)(=O)N2CCN(c3ccc(Cl)c(OCC(=O)O)c3)CC2)cc1 [II-35]	84	60	88	3100	470	
CC(C)Oc1ccc(S(=O)(=O)N2CCN(c3cc(OCC(=O)O)cc(-c4ccoc4)c3)CC2)cc1 [II-38]	71	69	39	250	650	
CC(C)Oc1ccc(S(=O)(=O)N2CCN(c3ccc(Cl)c(OCC(=O)O)c3)CC2C)cc1 (centres unmarked) [II-43]	98	33	56	2300	740	
CC(C)Oc1ccc(S(=O)(=O)N2CCN(c3ccc(-c4ccoc4)c(OCC(=O)O)c3)CC2)cc1 [II-54]	106	39	119	270		420
CC(C)Oc1ccc(S(=O)(=O)N2CCN(c3ccc(C#N)c(OCC(=O)O)c3)CC2)cc1 [II-80]	82	57	39	230	200	
CC(C)Oc1ccc(S(=O)(=O)N2CCN(c3ccc(-c4cnco4)c(OCC(=O)O)c3)CC2)cc1 [II-84]	56	54	82	330		180
CC(C)Oc1ccc(S(=O)(=O)N2CCN(c3ccc(C(=O)NC4CC4)c(OCC(=O)O)c3)CC2)cc1 [II-89]				20000	2100	

SMILES	inhibition in vivo at 10 mg/kg (OVA asthma model of rat; [3]) [%]	inhibition in vivo at 10 mg/kg (OVA asthma model of rat; [4]) [%]	inhibition in vivo at 10 mg/kg (OVA asthma model of rat; [5]) [%]	Ki (DP receptor [1]) [nM]	IC50 (DP receptor [2]; [6]) [nM]	IC50 (DP receptor [2]) [nM]
CC(C)Oc1ccc(S(=O)(=O)N2CCN(c3ccc(-c4nccs4)c(OCC(=O)O)c3)CC2)cc1 [II-92]	44	46	53	580	360	
CC(C)Oc1ccc(S(=O)(=O)N2CCN(c3ccc(-c4ncco4)c(OCC(=O)O)c3)CC2)cn1 [II-94]				1700	2000	
CC(C)Oc1ccc(S(=O)(=O)N2CCN(c3ccc(-n4cccn4)c(OCC(=O)O)c3)CC2)cc1 [II-95]				4700	2400	
CC(C)Oc1ccc(S(=O)(=O)N2CCN(c3ccc(-c4cocn4)c(OCC(=O)O)c3)CC2)cc1 [II-96]	52	46	105	330	290	
CC(C)Oc1ccc(S(=O)(=O)N2CCN(c3ccc(C(=O)NCc4cccs4)c(OCC(=O)O)c3)CC2)cc1 [II-99]				11000	590	
CC(C)Oc1ccc(S(=O)(=O)N2CCN(c3ccc(C(=O)NCc4ccccn4)c(OCC(=O)O)c3)CC2)cc1 [II-100]				12800	2400	
CC(C)Oc1ccc(S(=O)(=O)N2CCN(c3ccc(C(=O)Nc4nc5ccccc5[nH]4)c(OCC(=O)O)c3)CC2)cc1 [II-101]				22000	210	
CC(C)Oc1ccc(S(=O)(=O)N2CCN(c3ccc(C(=O)NCC4CC4)c(OCC(=O)O)c3)CC2)cc1 [II-105]				16000	1500	
CC(C)Oc1ccc(S(=O)(=O)N2CCN(c3ccc(C(=O)NCc4ccco4)c(OCC(=O)O)c3)CC2)cc1 [II-106]				19000	1600	
CC(C)Oc1ccc(S(=O)(=O)N2CCN(c3ccc(C(=O)Nc4nccs4)c(OCC(=O)O)c3)CC2)cc1 [II-108]				13000	130	
CC(C)Oc1ccc(S(=O)(=O)N2CCN(c3ccc(C(=O)Nc4nncs4)c(OCC(=O)O)c3)CC2)cc1 [II-110]				9800	360	
CC(C)Oc1ccc(S(=O)(=O)N2CCN(c3ccc(C(=O)Nc4ccn(C)n4)c(OCC(=O)O)c3)CC2)cc1 [II-111]				36000	700	
CC(C)Oc1ccc(S(=O)(=O)N2CCN(c3ccc(C(=O)Nc4cc(C5CC5)n[nH]4)c(OCC(=O)O)c3)CC2)cc1 [II-112]				9300	120	
CC(C)Oc1ccc(S(=O)(=O)N2CCN(c3ccc4ncn(CC(=O)O)c4c3)CC2)cc1 [II-134]				8500	2700	
CC(C)Oc1ccc(S(=O)(=O)N2CCN(c3ccc([N+](=O)[O-])c(NCC(=O)O)c3)CC2)cc1 [II-135]				490	130	
